Experimental findings from paper PMC7397269, “Synthesis and Evaluation of New Coumarin Derivatives as Antioxidant, Antimicrobial, and Anti-Inflammatory Agents” (Molecules, 2020) are described below.

Series [1] deals with Bacillus megaterium ATCC 9885. The experiment in a line: Agar well diffusion, B. megaterium. Type of series: cell-based. The note with it: Priestia megaterium, ATCC9885, 100 μL of 10 mg/mL in DMSO, read-out: diameter of inhibition zone, BM. In a few lines:
(§1)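 Wells (10 mm) in nutrient agar (bacteria, 1 × 10^8 CFU/mL) or Sabouraud dextrose agar (yeast, 1 × 10^6 CFU/mL) loaded with 100 μL of 10 mg/mL compound in DMSO. Plates incubated 24 h at 37 °C. Inhibition zone diameter (mm), mean of triplicates.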

Series [2] concerns Staphylococcus aureus ATCC 29213. Description: MIC, two-fold serial dilution, S. aureus. Conditions: ATCC29213, read-out: Minimum inhibitory concentration, SA. Type of series: cell-based. In a few lines:
(§2)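 Compounds with agar-well inhibition zones >16 mm were retested by two-fold broth dilution at final concentrations of 1000, 500, 250 and 125 μg/mL. Inocula of 1 × 10^8 CFU/mL (bacteria) or 1 × 10^6 CFU/mL (yeast), 0.1 mL per 5 mL. MIC = lowest concentration without growth after 24 h at 37 °C.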

Series [3] has as its target T1, COX-1 (Homo sapiens, UniProt P23219).
T1 construct: purchased Cayman Chemical 701070
Description: COX-1 inhibition, Cayman assay kit. Format: biochemical. Conditions: mean of two determinations.

The test system of series [4] is Escherichia coli ATCC 2592. Description: MIC, two-fold serial dilution, E. coli. Type of series: cell-based. Conditions: ATCC2592, read-out: Minimum inhibitory concentration, EC. In a few lines: as §2
Series [5] relates to Pseudomonas aeruginosa ATCC 27,953. Description: MIC, two-fold serial dilution, P. aeruginosa. Format: cell-based. Conditions: ATCC27, read-out: Minimum inhibitory concentration, PA. In a few lines: as §2
Series [6] can be described thus: DPPH antioxidant assay (radical scavenging). Format: biochemical. The note with it: mean ± SD (n = 3). In short, it runs like this: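 Compounds, starting at 200 μg/mL, were mixed with 0.2 mM methanolic DPPH and incubated 30 min in the dark at 25 °C; absorbance was read at 515 nm. % inhibition is background-corrected against DPPH-only control, with IC50 from curve fit. Runs were triplicate (mean ± SD), with ascorbic acid as positive control.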
On the technique in general: The DPPH test is a chemical assay of radical scavenging.

The subject of series [7] is Pseudomonas aeruginosa ATCC 27,953. Description: Agar well diffusion, P. aeruginosa. Format: cell-based. The note with it: ATCC27, 100 μL of 10 mg/mL in DMSO, read-out: diameter of inhibition zone, PA. In short, it runs like this: as §1
In general terms: A growth-free zone around the sample is the usual read-out of agar diffusion tests.

The test system of series [8] is trypsin. The experiment in a line: Proteinase-inhibitory activity. Type of series: biochemical. The note with it: 250 µg/mL; mean ± SD (n = 3). In a few lines: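 Trypsin (0.06 mg per 2 mL, 20 mM Tris-HCl pH 7.4) was preincubated 5 min with test sample at 250 µg/mL, then 0.8% casein was added for 20 min. Perchloric acid stopped the reaction and supernatant absorbance was read at 280 nm. % inhibition is relative to the no-sample control, in triplicate.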

In series [9] the test system is Saccharomyces cerevisiae local isolate. The experiment in a line: MIC, two-fold serial dilution, S. cerevisiae. Format: cell-based. The note with it: read-out: Minimum inhibitory concentration, SC. In a few lines:
as §2

For series [10], the system named is Bacillus megaterium ATCC 9885. The experiment in a line: MIC, two-fold serial dilution, B. megaterium. Type of series: cell-based. The note with it: Priestia megaterium, ATCC9885, read-out: Minimum inhibitory concentration, BM. In a few lines: as §2
In series [11] the test system is Candida albicans NRRL Y-477. Description: Agar well diffusion, C. albicans. Format: cell-based. The note with it: NRRLY477, 100 μL of 10 mg/mL in DMSO, read-out: diameter of inhibition zone, CA. In short, it runs like this: as §1
The mark [12] stands for this setting: two-fold serial dilution, S. cerevisiae.

In brackets after ≈: the same amount, converted by molar mass. Read-outs that look alike come from different tables or passages of the source.

T1 sequence (P23219 24-599): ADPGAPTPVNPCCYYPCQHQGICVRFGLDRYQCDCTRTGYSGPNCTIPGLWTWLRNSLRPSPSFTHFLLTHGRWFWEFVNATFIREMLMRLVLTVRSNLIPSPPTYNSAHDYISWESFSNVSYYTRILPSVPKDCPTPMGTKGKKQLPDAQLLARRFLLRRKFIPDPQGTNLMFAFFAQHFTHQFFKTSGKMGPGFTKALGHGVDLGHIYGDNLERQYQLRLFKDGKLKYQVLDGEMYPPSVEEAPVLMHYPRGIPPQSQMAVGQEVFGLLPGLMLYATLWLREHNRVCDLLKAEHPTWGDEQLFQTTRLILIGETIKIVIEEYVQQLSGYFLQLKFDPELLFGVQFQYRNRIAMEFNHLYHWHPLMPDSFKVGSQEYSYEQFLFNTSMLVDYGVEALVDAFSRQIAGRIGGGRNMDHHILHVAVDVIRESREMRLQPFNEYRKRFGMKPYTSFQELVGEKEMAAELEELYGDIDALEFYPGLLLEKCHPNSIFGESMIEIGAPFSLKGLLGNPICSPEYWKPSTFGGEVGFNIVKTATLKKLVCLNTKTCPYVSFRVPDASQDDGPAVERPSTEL

Usually zone of inhibition stands for the size of the clear area around the sample on an inoculated plate. For orientation: melting point means the temperature of the solid-liquid transition. As a reminder, the IC50 is the midpoint of a concentration-inhibition curve. Lower therefore signals higher potency. For `Cc1ccc2oc(=O)c(S(=O)(=O)Nc3ccccc3)c(O)c2c1` [8b, 4-Hydroxy-6-methyl-2-oxo-N-phenyl-2H-chromene-3-sulfonamide], the melting point is 324 to 325 °C. Further, the zone of inhibition at 10000 µg/mL in series [1] was 24 mm. Moreover, in series [2], the MIC turned out to be 1000 µg/mL (≈ 3020 µM). The compound further displayed a half-inhibitory concentration (IC50) in series [3] of 26 µM. The MIC in series [4] is 1000 µg/mL (≈ 3020 µM). Further, the MIC in series [5] came out at 1000 µg/mL (≈ 3020 µM). Also, the IC50 in [6] was determined as 19.25 ± 4.171 µg/mL (≈ 58.1 µM). For the same compound, the zone of inhibition at 10000 µg/mL in [7] came to 17 mm. The “% Inhibition (proteinase)” value in [8] amounted to 14.3 ± 2.21%. Further, the MIC in [9] (setting [12]) was 1000 µg/mL (≈ 3020 µM). The MIC in series [10] is 1000 µg/mL (≈ 3020 µM). The zone of inhibition at 10000 µg/mL in series [11] was 20 mm.

As to `O=c1oc2ccc(Cl)cc2c(O)c1S(=O)(=O)Nc1ccc(O)cc1` [8c, 6-Chloro-4-hydroxy-N-(4-hydroxyphenyl)-2-oxo-2H-chromene-3-sulfonamide], the melting point was in the range of 250 to 251 °C. Moreover, the zone of inhibition at 10000 µg/mL in series [1] worked out at 28 mm. The MIC in series [2] turned out to be 125 µg/mL (≈ 340 µM). Besides, it took 15.4 µM to reach half-maximal inhibition in [3] (IC50). The MIC in series [4] worked out at 250 µg/mL (≈ 680 µM). Besides, in series [5], the MIC stood at 250 µg/mL (≈ 680 µM). Also, the 50% inhibitory concentration (IC50) in [6] worked out at 3.87 ± 0.409 µg/mL (≈ 10.5 µM). Besides, the zone of inhibition at 10000 µg/mL in [7] amounted to 29 mm. The “% Inhibition (proteinase)” value in [8] turned out to be 41.69 ± 2.83%. The MIC in series [9] (setting [12]) turned out to be 125 µg/mL (≈ 340 µM). In series [10], the MIC is 250 µg/mL (≈ 680 µM). In [11], the zone of inhibition at 10000 µg/mL worked out at 30 mm.

In the case of `Cc1ccc2oc(=O)c(S(=O)(=O)Nc3ccc(S(=O)(=O)Nc4ncccn4)cc3)c(O)c2c1` [7d, 4-Hydroxy-6-methyl-2-oxo-N-(4-(N-(pyrimidin-2-yl)sulfamoyl)phenyl)-2H-chromene-3-sulfonamide], the melting point lay in the range of 207 to 209 °C. Besides, the zone of inhibition at 10000 µg/mL in series [1] is 30 mm. Besides, the MIC in [2] came out at 125 µg/mL (≈ 256 µM). In series [3], the midpoint of inhibition, the IC50, lay at 214 µM. Besides, the MIC in series [4] came out at 125 µg/mL (≈ 256 µM). In addition, the MIC in series [5] was 125 µg/mL (≈ 256 µM). The compound further registered an IC50 in [6] of 112.19 ± 4.391 µg/mL (≈ 230 µM). Moreover, the zone of inhibition at 10000 µg/mL in series [7] came out at 25 mm. The “% Inhibition (proteinase)” value in series [8] is reported as 36.84 ± 4.87%. The MIC in series [9] (setting [12]) worked out at 125 µg/mL (≈ 256 µM). Moreover, the MIC in series [10] worked out at 125 µg/mL (≈ 256 µM). For the same compound, in series [11], the zone of inhibition at 10000 µg/mL is 30 mm.

Compound `Cc1ccc2oc(=O)c3c(c2c1)OC(N)=C(C#N)C3c1ccco1` (racemic) [2b, (±)-2-Amino-4-(furan-2-yl)-9-methyl-5-oxo-4H,5H-pyrano[3,2-c]chromene-3-carbonitrile] showed a melting point of 251 to 253 °C. Also, the zone of inhibition at 10000 µg/mL in series [1] worked out at 25 mm. Besides, in series [2], the MIC came to 500 µg/mL (≈ 1560 µM). The IC50 in series [3] worked out at 201 µM. Further, the MIC in series [4] was found to be 1000 µg/mL (≈ 3120 µM). For the same compound, the MIC in [5] amounted to 1000 µg/mL (≈ 3120 µM). Further, the IC50 entry in series [6] was “— ((—): inactive (IC50 > 200 μg/mL))”. Further, in series [7], the zone of inhibition at 10000 µg/mL was determined as 21 mm. The “% Inhibition (proteinase)” value in series [8] turned out to be 74.68 ± 3.01%. The MIC in series [9] was 500 µg/mL (≈ 1560 µM). In series [10], the MIC turned out to be 500 µg/mL (≈ 1560 µM). Also, the zone of inhibition at 10000 µg/mL in [11] came out at 23 mm.
